According to PMC7340583, “The yeast cell wall protein Pry3 inhibits mating through highly conserved residues within the CAP domain” (Biology Open, 2020):
Where a chain is given by its changes, count along the chain named. Where two headings read alike, the source gives them in different places.

Tests used:
Assay in all cases: radioligand binding, Q-sepharose adsorption, scintillation counting
[1] = target: T1, Pry3 CAP domain (Pry3-CAP) (Saccharomyces cerevisiae, UniProt P47033, P105C/A155C); settings: labelled compound; 20 mM Tris pH 7.5, 30 mM NaCl, 0.05% Triton X-100, 30°C, 1 h
T1 sequence (P47033 18-161 P105C/A155C): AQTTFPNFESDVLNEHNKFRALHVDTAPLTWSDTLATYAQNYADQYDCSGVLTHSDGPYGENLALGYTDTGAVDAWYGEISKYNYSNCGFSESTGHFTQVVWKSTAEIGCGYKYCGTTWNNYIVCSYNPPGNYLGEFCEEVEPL

[2] = target: T2, Pry3 CAP domain (Pry3-CAP) (Saccharomyces cerevisiae, UniProt P47033, C142S); settings: labelled compound; 20 mM Tris pH 7.5, 30 mM NaCl, 0.05% Triton X-100, 30°C, 1 h
T2 sequence (P47033 18-161 C142S): T1 sequence (P47033 18-161 P105C/A155C) with C88P, C125S, C138A

Pry1 CAP domain = target: T3, Pry1 CAP domain (Saccharomyces cerevisiae, UniProt P47032)
T3 sequence (P47032 20-299 limits assumed): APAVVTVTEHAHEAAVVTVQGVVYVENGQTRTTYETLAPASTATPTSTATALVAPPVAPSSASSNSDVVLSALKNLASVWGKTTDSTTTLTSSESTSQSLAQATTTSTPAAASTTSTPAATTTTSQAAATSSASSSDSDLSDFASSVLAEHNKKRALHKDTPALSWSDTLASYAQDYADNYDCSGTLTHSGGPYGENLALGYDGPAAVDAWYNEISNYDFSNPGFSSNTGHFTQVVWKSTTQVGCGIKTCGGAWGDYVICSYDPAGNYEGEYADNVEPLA
Text: radioligand binding, Q-sepharose adsorption, scintillation counting on Pry1 CAP domain | Polyhistidine-tagged versions of the CAP domain of Pry1, Pry3 and mutant versions of Pry3 | The affinity of Pry3 to palmitic acid is thus similar to that of Pry1

[3] = target: T4, Pry3 CAP domain (Pry3-CAP) (Saccharomyces cerevisiae, UniProt P47033)
T4 sequence (P47033 18-161): T1 sequence (P47033 18-161 P105C/A155C) with C88P, C138A

[4] = target: T5, Pry3 CAP domain (Pry3-CAP) (Saccharomyces cerevisiae, UniProt P47033, V117M); settings: labelled compound; 20 mM Tris pH 7.5, 30 mM NaCl, 0.05% Triton X-100, 30°C, 1 h
T5 sequence (P47033 18-161 V117M): T1 sequence (P47033 18-161 P105C/A155C) with C88P, V100M, C138A

| Kd (Pry1 CAP domain) [µM] | SMILES | radioligand binding, Q-sepharose adsorption, scintillation counting [1] | radioligand binding, Q-sepharose adsorption, scintillation counting [2] | Kd (Pry1 CAP domain; labelled compound, 20 mM Tris pH 7.5, 30 mM NaCl, 0.05% Triton X-100, 30°C, 1 h) [µM] | Kd [3] [µM] | radioligand binding, Q-sepharose adsorption, scintillation counting [4] |
| --- | --- | --- | --- | --- | --- | --- |
| – | CC(C)CCC[C@@H](C)[C@H]1CC[C@H]2[C@@H]3CC=C4C[C@@H](O)CC[C@]4(C)[C@H]3CC[C@]12C [cholesterol] | decreased sterol-binding of Pry3-CAP^P105C, A155C to background levels | as present in Pry3-CAP^C142S, disrupted sterol binding in vitro | 1.88 | 13.1 | – |
| 111 | CCCCCCCCCCCCCCCC(=O)O [palmitic acid] | – | – | – | 114 | Pry3^V117M failed to efficiently bind palmitic acid in vitro |
